Measurements from patent publication US12371464B2, “Polypeptides and uses thereof” (MEDIMMUNE LIMITED, priority 2020, dated 2025).
Numbered stars: 1 amine (or outer) side, 2 acyl side, 3 side chain; on linkers, the order of the positions; unused ones are H or OH. Bridge positions count the residues as written; N and C are the ends. Square brackets hold non-standard residues; d marks the D form. Side chains are listed from the residue outwards. Peptide text beside a SMILES is read from it. * marks the point of attachment. C20 diacid = O=C(O)CCCCCCCCCCCCCCCCCCC(=O)*; C18 diacid = O=C(O)CCCCCCCCCCCCCCCCC(=O)*; γGlu = O=C(O)[C@H](CCC(=O)[*:2])N[*:1]; αMeF = C[C@](N)(Cc1ccccc1)C(=O)O; Aib = CC(C)(N)C(=O)O

Assay: Thioflavin T fibrillation assay
Type: physicochemical
Conditions: for Time taken to detect increase in fluorescence intensity: 1 mg/mL in 25 mM sodium acetate buffer pH 4.0, 37° C., 6 days, orbital shaking, >144 h = no increase; for fibril-forming tendency on conjugating pramlintide to a lipid: as seen in Table 7
From the text: Peptide aggregation that form fibrils is an indication of physical instability. Fibril formation in solution poses a significant risk for the stability of injectable peptide drug products. Thioflavin T (ThT) fibrillation assay is a useful tool to assess the aggregation kinetics of a peptide or protein under accelerated and stressed conditions that can be used to forecast the long-term viability of a compound in solution. ThT can selectively bind amyloid fibrils and the resultant complex emits strong fluorescence signal at 482 nm when excited at 450 nm (Anal Biochem. 1989 March; 177 (2): 244-9). Monitoring of the change in fluorescence signal is an established method to study the fibril forming potential of peptides and proteins. ThT (purchased from Sigma Aldrich) stock solution is prepared by dissolving the ThT powder in Milli-Q water and filtered to obtain a 0.25 mM solution. The concentration of the solution is measured at 412 nm using an extinction coefficient of 36 mM-1 cm-1. Test peptides were dissolved at 1 mg/mL in 25 mM sodium acetate buffer pH 4.0. 100 μL aliquot of peptide solution and 5 μL aliquot of ThT solution were placed in a clear bottom black fluorescence 96-well plate. 5 replicates of each test samples were placed in the same row of the plate. Buffer was placed in control wells for baseline correction. All empty wells were filled with water to prevent evaporation. The plate was sealed with aluminium seal and placed in fluorescence plate reader and incubated for 6 days at 37° C. with intermittent orbital shaking at 500 to 750 rpm. The fluorescence intensity was measured every 30 min using excitation at 444 nm and emission at 480 nm. The fibril forming potential of the test peptides was determined by measuring the average time taken to detect an increase in baseline corrected fluorescence intensity.

With CC[C@H](C)[C@H](NC(=O)[C@@H]1CCCN1C(=O)CNC(=O)[C@](C)(Cc1ccccc1)NC(=O)[C@H](CC(N)=O)NC(=O)[C@H](CC(N)=O)NC(=O)[C@H](CO)NC(=O)[C@H](CO)NC(=O)[C@H](Cc1c[nH]cn1)NC(=O)[C@H](CCCNC(=N)N)NC(=O)[C@H](CC(C)C)NC(=O)[C@H](Cc1ccccc1)NC(=O)[C@H](CC(N)=O)NC(=O)[C@H](C)NC(=O)[C@H](CC(C)C)NC(=O)[C@H](CCCNC(=N)N)NC(=O)[C@H](CCC(N)=O)NC(=O)[C@@H](NC(=O)[C@H](C)NC(=O)[C@@H]1CSSC[C@H](NC(=O)[C@@H](N)CCCCNC(=O)CC[C@H](NC(=O)CCCCCCCCCCCCCCCCC(=O)O)C(=O)O)C(=O)N[C@@H](CC(N)=O)C(=O)N[C@@H]([C@@H](C)O)C(=O)N[C@@H](C)C(=O)N[C@@H]([C@@H](C)O)C(=O)N1)[C@@H](C)O)C(=O)N[C@@H](CC(C)C)C(=O)N1CCC[C@H]1C(=O)N1CCC[C@H]1C(=O)N[C@H](C(=O)N[C@@H](CC(N)=O)C(=O)N[C@H](C(=O)NCC(=O)N[C@@H](CO)C(=O)N[C@@H](CC(N)=O)C(=O)N[C@H](C(=O)N[C@@H](Cc1ccc(O)cc1)C(N)=O)[C@@H](C)O)C(C)C)[C@@H](C)O [Peptide 19, K(γE-C18diacid)[CNTATC]ATQRLANFLRHSSNN(αMePhe)GPILPPTNVGSNTY-amide] (H-K([γGlu-C18 diacid])CNTATCATQRLANFLRHSSNN[αMeF]GPILPPTNVGSNTY-NH2; disulfide 2-7; N-terminus assumed) the “Time taken to detect increase in fluorescence intensity” value (“Time taken to detect increase” below) was >144 h.
With CC[C@H](C)[C@H](NC(=O)[C@@H]1CCCN1C(=O)CNC(=O)[C@H](Cc1ccccc1)NC(=O)[C@H](CC(N)=O)NC(=O)[C@H](CC(N)=O)NC(=O)[C@H](CO)NC(=O)[C@H](CO)NC(=O)[C@H](Cc1c[nH]cn1)NC(=O)[C@@H](NC(=O)[C@H](CC(C)C)NC(=O)[C@H](Cc1ccccc1)NC(=O)[C@H](CC(N)=O)NC(=O)[C@H](C)NC(=O)[C@H](CC(C)C)NC(=O)[C@H](CCCNC(=N)N)NC(=O)[C@H](CCC(N)=O)NC(=O)[C@@H](NC(=O)[C@H](C)NC(=O)[C@@H]1CSSC[C@H](NC(=O)[C@H](CCCCN)NC(=O)CC[C@H](NC(=O)CCCCCCCCCCCCCCCCC(=O)O)C(=O)O)C(=O)N[C@@H](CC(N)=O)C(=O)N[C@@H]([C@@H](C)O)C(=O)N[C@@H](C)C(=O)N[C@@H]([C@@H](C)O)C(=O)N1)[C@@H](C)O)C(C)C)C(=O)N[C@@H](CC(C)C)C(=O)N1CCC[C@H]1C(=O)N1CCC[C@H]1C(=O)N[C@H](C(=O)N[C@@H](CC(N)=O)C(=O)N[C@H](C(=O)NCC(=O)N[C@@H](CO)C(=O)N[C@@H](CC(N)=O)C(=O)N[C@H](C(=O)N[C@@H](Cc1ccc(O)cc1)C(N)=O)[C@@H](C)O)C(C)C)[C@@H](C)O [Peptide 3] ({C18 diacid-γGlu}-KCNTATCATQRLANFLVHSSNNFGPILPPTNVGSNTY-NH2; disulfide 2-7) the “Time taken to detect increase” value was <5 h and the “fibril-forming tendency on conjugating pramlintide to a lipid” value (“fibril-forming tendency” below) was “increases the fibril-forming tendency”.
With CC[C@H](C)[C@H](NC(=O)[C@@H]1CCCN1C(=O)CNC(=O)[C@H](Cc1ccccc1)NC(=O)[C@H](CC(N)=O)NC(=O)[C@H](CC(N)=O)NC(=O)[C@H](CO)NC(=O)[C@H](CO)NC(=O)[C@H](Cc1c[nH]cn1)NC(=O)[C@@H](NC(=O)[C@H](CC(C)C)NC(=O)[C@H](Cc1ccccc1)NC(=O)[C@H](CC(N)=O)NC(=O)[C@H](C)NC(=O)[C@H](CC(C)C)NC(=O)[C@H](CCCNC(=N)N)NC(=O)[C@H](CCC(N)=O)NC(=O)[C@@H](NC(=O)[C@H](C)NC(=O)[C@@H]1CSSC[C@H](NC(=O)[C@H](CCCCN)NC(=O)CC[C@H](NC(=O)CCCCCCCCCCCCCCCCCCC(=O)O)C(=O)O)C(=O)N[C@@H](CC(N)=O)C(=O)N[C@@H]([C@@H](C)O)C(=O)N[C@@H](C)C(=O)N[C@@H]([C@@H](C)O)C(=O)N1)[C@@H](C)O)C(C)C)C(=O)N[C@@H](CC(C)C)C(=O)N1CCC[C@H]1C(=O)N1CCC[C@H]1C(=O)N[C@H](C(=O)N[C@@H](CC(N)=O)C(=O)N[C@H](C(=O)NCC(=O)N[C@@H](CO)C(=O)N[C@@H](CC(N)=O)C(=O)N[C@H](C(=O)N[C@@H](Cc1ccc(O)cc1)C(N)=O)[C@@H](C)O)C(C)C)[C@@H](C)O [Peptide 112] ({C20 diacid-γGlu}-KCNTATCATQRLANFLVHSSNNFGPILPPTNVGSNTY-NH2; disulfide 2-7) the “Time taken to detect increase” value was <5 h and the “fibril-forming tendency” value was “increases the fibril-forming tendency”.
In the case of CC[C@H](C)[C@H](NC(=O)[C@@H]1CCCN1C(=O)CNC(=O)[C@H](Cc1ccccc1)NC(=O)[C@H](CC(N)=O)NC(=O)[C@H](CC(N)=O)NC(=O)[C@H](CO)NC(=O)[C@H](CO)NC(=O)[C@H](Cc1c[nH]cn1)NC(=O)[C@@H](NC(=O)[C@H](CC(C)C)NC(=O)[C@H](Cc1ccccc1)NC(=O)[C@H](CC(N)=O)NC(=O)[C@H](C)NC(=O)[C@H](CC(C)C)NC(=O)[C@H](CCCNC(=N)N)NC(=O)[C@H](CCC(N)=O)NC(=O)[C@@H](NC(=O)[C@H](C)NC(=O)[C@@H]1CSSC[C@H](NC(=O)[C@H](CCCCN)NC(=O)CNC(=O)CNC(=O)CNC(=O)CC[C@H](NC(=O)CC[C@H](NC(=O)CCCCCCCCCCCCCCCCC(=O)O)C(=O)O)C(=O)O)C(=O)N[C@@H](CC(N)=O)C(=O)N[C@@H]([C@@H](C)O)C(=O)N[C@@H](C)C(=O)N[C@@H]([C@@H](C)O)C(=O)N1)[C@@H](C)O)C(C)C)C(=O)N[C@@H](CC(C)C)C(=O)N1CCC[C@H]1C(=O)N1CCC[C@H]1C(=O)N[C@H](C(=O)N[C@@H](CC(N)=O)C(=O)N[C@H](C(=O)NCC(=O)N[C@@H](CO)C(=O)N[C@@H](CC(N)=O)C(=O)N[C@H](C(=O)N[C@@H](Cc1ccc(O)cc1)C(N)=O)[C@@H](C)O)C(C)C)[C@@H](C)O [Peptide 4] ({C18 diacid-γGlu-γGlu}-GGGKCNTATCATQRLANFLVHSSNNFGPILPPTNVGSNTY-NH2; disulfide 5-10), the “Time taken to detect increase” value is reported as <5 h and the “fibril-forming tendency” value is reported as “increases the fibril-forming tendency”.
In the case of CC[C@H](C)[C@H](NC(=O)[C@@H]1CCCN1C(=O)CNC(=O)[C@H](Cc1ccccc1)NC(=O)[C@H](CC(N)=O)NC(=O)C(C)(C)NC(=O)[C@H](CO)NC(=O)[C@H](CO)NC(=O)[C@H](Cc1c[nH]cn1)NC(=O)[C@H](CCCNC(=N)N)NC(=O)[C@H](CC(C)C)NC(=O)[C@H](Cc1ccccc1)NC(=O)[C@H](CC(N)=O)NC(=O)[C@H](C)NC(=O)[C@H](CC(C)C)NC(=O)[C@H](CCCNC(=N)N)NC(=O)[C@H](CCC(N)=O)NC(=O)[C@@H](NC(=O)[C@H](C)NC(=O)[C@@H]1CSSC[C@H](NC(=O)[C@H](CCCCN)NC(=O)[C@@H](N)CCCCNC(=O)CC[C@H](NC(=O)CC[C@H](NC(=O)CCCCCCCCCCCCCCCCC(=O)O)C(=O)O)C(=O)O)C(=O)N[C@@H](CC(N)=O)C(=O)N[C@@H]([C@@H](C)O)C(=O)N[C@@H](C)C(=O)N[C@@H]([C@@H](C)O)C(=O)N1)[C@@H](C)O)C(=O)N[C@@H](CC(C)C)C(=O)N1CCC[C@H]1C(=O)N1CCC[C@H]1C(=O)N[C@H](C(=O)N[C@@H](CC(N)=O)C(=O)N[C@H](C(=O)NCC(=O)N[C@@H](CO)C(=O)N[C@@H](CC(N)=O)C(=O)N[C@H](C(=O)N[C@@H](Cc1ccc(O)cc1)C(N)=O)[C@@H](C)O)C(C)C)[C@@H](C)O [Peptide 66, K(γE-γE-C18diacid)K[CNTATC]ATQRLANFLRHSS(Aib)NFGPILPPTNVGSNTY-amide] (H-K([γGlu-γGlu-C18 diacid])KCNTATCATQRLANFLRHSS[Aib]NFGPILPPTNVGSNTY-NH2; disulfide 3-8; N-terminus assumed), the “Time taken to detect increase” value is reported as >144 h.
With CC[C@H](C)[C@H](NC(=O)[C@@H]1CCCN1C(=O)CNC(=O)[C@H](Cc1ccccc1)NC(=O)[C@H](CC(N)=O)NC(=O)[C@H](CC(N)=O)NC(=O)[C@H](CO)NC(=O)[C@H](CO)NC(=O)[C@H](Cc1c[nH]cn1)NC(=O)[C@@H](NC(=O)[C@H](CC(C)C)NC(=O)[C@H](Cc1ccccc1)NC(=O)[C@H](CC(N)=O)NC(=O)[C@H](C)NC(=O)[C@H](CC(C)C)NC(=O)[C@H](CCCNC(=N)N)NC(=O)[C@H](CCC(N)=O)NC(=O)[C@@H](NC(=O)[C@H](C)NC(=O)[C@@H]1CSSC[C@H](NC(=O)[C@@H](N)CCCCNC(=O)CC[C@H](NC(=O)CCCCCCCCCCCCCCCCC(=O)O)C(=O)O)C(=O)N[C@@H](CC(N)=O)C(=O)N[C@@H]([C@@H](C)O)C(=O)N[C@@H](C)C(=O)N[C@@H]([C@@H](C)O)C(=O)N1)[C@@H](C)O)C(C)C)C(=O)N[C@H](CC(C)C)C(=O)N1CCC[C@H]1C(=O)N1CCC[C@H]1C(=O)N[C@H](C(=O)N[C@@H](CC(N)=O)C(=O)N[C@H](C(=O)NCC(=O)N[C@@H](CO)C(=O)N[C@@H](CC(N)=O)C(=O)N[C@H](C(=O)N[C@@H](Cc1ccc(O)cc1)C(N)=O)[C@@H](C)O)C(C)C)[C@@H](C)O [Peptide 103, K(γE-C18diacid)[CNTATC]ATQRLANFLVHSSNNFGPI(dL)PPTNVGSNTY-amide] (H-K([γGlu-C18 diacid])CNTATCATQRLANFLVHSSNNFGPI[dL]PPTNVGSNTY-NH2; disulfide 2-7; N-terminus assumed) the “Time taken to detect increase” value was <5 h.
